The subject of experiment [1] is Spontaneously hypertensive rats. Nature of the experiment: Blood pressure lowering activity, tail cuff method, spontaneously hypertensive rats. In kind it is in vivo, rat. Here is the method: Blood Pressure Lowering Activity
Systolic blood pressures were recorded by a modification of the tail cuff method described by I. M. Claxton, M. G. Palfreyman, R. H. Poyser, R. L. Whiting, European Journal of Pharmacology, 37,179 (1976). A W+W BP recorder, model 8005 was used to display pulses. Prior to all measurements rats were placed in a heated environment (33.5°±0.5° C.) before transfer to a restraining cage. Each determination of blood pressure was the mean of at least 6 readings. Spontaneously hypertensive rats (ages 12-18 weeks) with systolic blood pressures >180 mmHg were considered hypertensive.

The subject of experiment [2] is guinea pig tracheal spiral preparations. The experiment can be described thus: Bronchodilation in vitro; guinea pig tracheal spiral preparations. The settings on record: Cavia porcellus, relaxation of guinea pig tracheal spirals, relative to total relaxation with 10^-3 M isoprenaline; for Emax: read-out: I.A (efficacy, Intrinsic Activity). It counts as cell-based. The procedure:
(a) Bronchodilation in vitro; guinea pig tracheal spiral preparations
Male guinea pigs (300-600 g) were stunned by a blow to the head and bled from the carotid artery. The trachea was exposed, dissected free of connective tissue, and transferred to oxygenated krebs solution at 37° C. Next, spirals (2 per trachea) were prepared by cutting the whole trachea spirally along its longitudinal axis and then dividing this spiral lengthwise. Each preparation was mounted, using silk thread, in a 10 ml organ bath filled with krebs solution at 37° C. and bubbled with 5% CO2 with O2. The resting tension of the preparations was set at 2 g and changes in muscle tension were monitored isometrically by means of a UFI (2 oz) force and displacement transducer (Ormed Ltd) connected to a Linseis pen recorder. All preparations were allowed to equilibrate for 60 minutes. During this equilibration period the preparations were washed by upward displacement at 15 minute intervals and, if necessary, the resting tension was readjusted to 2 g using a mechanical micromanipulator system.
Once a steady resting tension had been obtained, the preparations were dosed cumulatively with the test compound (10^-8 -2×10^-5 M), and finally a maximum relaxation achieved by addition of 10^-3 M isoprenaline. The fall in tension evoked by the test compound was expressed as a percentage of the total relaxation evoked in the presence of 10^-3 M isoprenaline. Appropriate concentration-relaxation curves were then constructed and values for potency (IC50) and efficacy (Intrinsic Activity, I.A.) were obtained.
The composition of Krebs solution is: sodium chloride 118.07 mM, sodium hydrogen carbonate 26.19 mM, potassium chloride 4.68 mM, potassium orthophosphate 1.18 mM, magnesium sulphate septahydrate 1.8 mM and calcium chloride 2.52 mM; pH ca. 7.45.

The term IC50 denotes the concentration at which inhibition is half-maximal. A higher IC50 goes with lower potency. Turning to `CC1(C)Oc2ccc(C(F)(F)C(F)(F)F)cc2[C@@H](N2CCCC2=O)[C@@H]1O` (relative stereo) [Example 1, Trans-3,4-Dihydro-2,2-dimethyl-6-pentafluoroethyl-4-(2-oxopyrrolidin-1-yl)-2H-1-benzopyran-3-ol], in experiment [1] (0.1 mg/kg p.o.), the “% change in systolic B.P. 1 h” value is given as -19 ± 3%, the “% change in systolic B.P. 2 h” value is -30 ± 2% and the “% change in systolic B.P. 4 h” value is recorded as -28 ± 2%. For the same molecule, in experiment [2], inhibition was half-maximal at 0.19 µM (IC50) and the Emax was 88%.

Regarding `CC1(C)Oc2ccc(C(F)(F)C(F)(F)F)cc2[C@@H](n2ccccc2=O)[C@@H]1O` (relative stereo) [Example 5, Trans-3,4-dihydro-2,2-dimethyl-6-pentafluoroethyl-4-(2(1H)-pyridon-1-yl)-2H-1-benzopyran-3-ol], in experiment [2], the 50% inhibitory concentration (IC50) worked out at 0.15 µM and the Emax was determined as 97%.

`CC1(C)C=C(N2CCCCC2=O)c2cc(C(F)(F)C(F)(F)F)ccc2O1` [Example 8, 2,2-Dimethyl-6-pentafluoroethyl-4-(2-oxopiperidin-1-yl)-2H-1-benzopyran]: in experiment [2], inhibition was half-maximal at 0.19 µM (IC50) and the Emax was found to be 88%.

Regarding `CC1(C)C=C(n2ccccc2=O)c2cc(C(F)(F)C(F)(F)F)ccc2O1` [Example 9, 2,2-Dimethyl-6-pentafluoroethyl-4-(2(1H)pyridon-1-yl)-2H-1-benzopyran], in experiment [2], the IC50 was 0.0715 µM and the Emax was 84%.

On to `CC1(C)C=C(N2CCCC2=O)c2cc(C(F)(F)C(F)(F)F)ccc2O1` [Example 2, 2,2-Dimethyl-6-pentafluoroethyl-4-(2-oxopyrrolidin-1-yl)-2H-1-benzopyran], for which, in experiment [1] (1.0 mg/kg p.o.), the “% change in systolic B.P. 1 h” value was -38 ± 2%, the “% change in systolic B.P. 2 h” value is given as -24 ± 10% and the “% change in systolic B.P. 4 h” value is given as -18 ± 6%. Further, in experiment [2], 0.098 µM corresponded to half-maximal inhibition (IC50) and the Emax was found to be 96%.

In the case of `CC1(C)Oc2ccc(C(F)(F)C(F)(F)F)cc2[C@@H](N2CCCCC2=O)[C@@H]1O` [Example 6, (-)-Trans-3,4-dihydro-2,2-dimethyl-4-(2-oxopiperidin-1-yl)-6-pentafluoroethyl-2H-1-benzopyran-3-ol], in experiment [2], the Emax is 93%.

Turning to `CC1(C)Oc2ccc(C(F)(F)C(F)(F)F)cc2[C@@H](N2CCCCC2=O)[C@@H]1O` (relative stereo) [Example 4, Trans-3,4-dihydro-2,2-dimethyl-4-(2-oxopiperidin-1-yl)-6-pentafluoroethyl-2H-1-benzopyran-3-ol], in experiment [1] (0.3 mg/kg p.o.), the “% change in systolic B.P. 1 h” value is -36 ± 3%, the “% change in systolic B.P. 2 h” value was -30 ± 1% and the “% change in systolic B.P. 4 h” value is -26 ± 2%. Besides, the Emax in experiment [2] turned out to be 90%.

Regarding `CC1(C)Oc2ccc(C(O)C(F)(F)F)cc2[C@@H](N2CCCC2=O)[C@@H]1O` (some centres unmarked) [Example 3], in experiment [1] (0.3 mg/kg p.o.), the “% change in systolic B.P. 1 h” value was -40 ± 10%, the “% change in systolic B.P. 2 h” value is recorded as -29 ± 7% and the “% change in systolic B.P. 4 h” value was -25 ± 7%. For the same molecule, in experiment [2], 0.37 µM corresponded to half-maximal inhibition (IC50) and the Emax came to 89%.
